The subject of series [1] is Mus musculus. Put plainly: Average weight of the mouse after treating with 80 mg/kg dose for 1 day. Set-up: unit not given here. In kind it is functional.
Series [2] deals with L1210. Put plainly: In vivo antitumor activity against L1210 leukemia in 5 mice measured as median survival range at 40 mg/kg; Value ranges from(14-17). The settings on record: mouse. Set-up: dose 40 mg/kg.
Series [3] concerns Mus musculus. Put plainly: Average weight of the mouse after treating with 20 mg/kg dose for 1 day. In kind it is functional. Set-up: unit not given here.
For series [4], the system named is L1210. Put plainly: In vivo antitumor activity against L1210 leukemia in 19 mice measured as T/C value; T/C = 19/9. In kind it is functional, Mus musculus.
Series [5] concerns L1210. In words: In vivo antitumor activity against L1210 leukemia in 5 mice measured as Increased life span. The class given is functional, Mus musculus.
The test system of series [6] is L1210. Put plainly: In vivo antitumor activity against L1210 leukemia in 5 mice measured as median survival range at 20 mg/kg; Value ranges from(12-14). In kind it is functional, Mus musculus.
In series [7] the test system is L1210. In words: In vivo antitumor activity against L1210 leukemia in 5 mice measured as median survival range at 80 mg/kg; Value ranges from(13-20). The class given is functional, Mus musculus.
Series [8] relates to Mus musculus. In words: Average weight of the mouse after treating with 80 mg/kg dose for 7 days. The class given is functional. Set-up: unit not given beside the values.
In series [9] the test system is L1210. Put plainly: In vivo antitumor activity against L1210 leukemia in 5 mice measured as Increased life span at 40 mg/kg. In kind it is functional. The note with it: Mus musculus.
The subject of series [10] is Mus musculus. In words: Average weight of the mouse after treating with 40 mg/kg dose for 7 days. Set-up: unit not given beside the values. The class given is functional.
Series [11] deals with L1210. Put plainly: In vivo antitumor activity against L1210 leukemia in 5 mice measured as Increased life span at 20 mg/kg. In kind it is functional. The note with it: Mus musculus.
Series [12] has as its system Mus musculus. In words: Average weight of the mouse after treating with 20 mg/kg dose for 7 days. The arrangement: unit not given beside the values. The class given is functional.
Series [13] deals with Mus musculus. In words: Average weight of the mouse after treating with 40 mg/kg dose for 1 day. In kind it is functional. The arrangement: unit not given here.
Series [14] has as its system Mus musculus. Put plainly: Average weight of the mouse after treating with 7.5 mg/kg dose for 1 day. The class given is functional.
For series [15], the system named is L1210. In words: In vivo antitumor activity against L1210 leukemia in 5 mice measured as median survival range at 7.5 mg/kg; Value ranges from (10-14). In kind it is functional, Mus musculus.
In series [16] the test system is L1210. Put plainly: In vivo anti tumor activity against L1210 leukemia in 5 mice measured as Increased life span at 15 mg/kg. The settings on record: Mus musculus. In kind it is functional.
Series [17] has as its system Mus musculus. Put plainly: In vivo antitumor activity against L1210 leukemia in 5 mice measured as weight change in 7 days(% weight). The class given is functional.
Series [18] relates to L1210. Put plainly: In vivo antitumor activity against L1210 leukemia in 5 mice measured as median survival range at 15 mg/kg; Value ranges from (14-18). In kind it is functional, Mus musculus.
Series [19] has as its system Mus musculus. In words: Average weight change in mouse after treating with 7.5 mg/kg dose for 7 days. The class given is functional.
Series [20] has as its system L1210. In words: In vivo anti tumor activity against L1210 leukemia in 5 mice measured as Increased life span at 7.5 mg/kg. The note with it: Mus musculus. The class given is functional.
For series [21], the system named is Mus musculus. Put plainly: Average weight of the mouse after treating with 15 mg/kg dose for 1 day. The class given is functional.
The subject of series [22] is L1210. In words: In vivo antitumor activity against L1210 leukemia in 18 mice measured as T/C values(days); T/C = 18/9. In kind it is functional, Mus musculus.
In series [23] the test system is L1210. In words: In vivo antitumor activity against L1210 leukemia in 13 mice measured as T/C values(days); T/C = 13/9. In kind it is functional, Mus musculus.
The subject of series [24] is L1210. Put plainly: In vivo antitumor activity against L1210 leukemia in 5 mice measured as median survival range at 40 mg/kg; Value ranges from(13-19). In kind it is functional, Mus musculus.
Series [25] concerns L1210. Put plainly: In vivo antitumor activity against L1210 leukemia in 5 mice measured as Increased life span at 80 mg/kg. The class given is functional. The note with it: Mus musculus.
Series [26] deals with L1210. In words: In vivo antitumor activity against L1210 leukemia in 15 mice measured as T/C values(days); T/C = 15/9. In kind it is functional, Mus musculus.
The subject of series [27] is L1210. In words: In vivo antitumor activity against L1210 leukemia in 5 mice measured as median survival range at 20 mg/kg; Value ranges from(12-13). In kind it is functional, Mus musculus.
The subject of series [28] is L1210. Put plainly: In vivo antitumor activity against L1210 leukemia in 5 mice measured as median survival range at 80 mg/kg; Value ranges from(13-26). In kind it is functional, Mus musculus.
Series [29] has as its system L1210. Put plainly: In vivo antitumor activity against L1210 leukemia in 5 mice measured as median survival range at 80 mg/kg; Value ranges from(12-23). The class given is functional, Mus musculus.
Series [30] deals with L1210. Put plainly: In vivo antitumor activity against L1210 leukemia in 19 mice measured as T/C values(days); T/C = 19/9. The class given is functional, Mus musculus.
Series [31] deals with L1210. In words: In vivo antitumor activity against L1210 leukemia in 5 mice measured as median survival range at 40 mg/kg; Value ranges from(12-18). The class given is functional, Mus musculus.

Usually ILS stands for how much longer treated animals lived than controls.

For the molecule `CCCCOC(=O)C(CCC(=O)OCc1cccnc1)NC(=O)c1ccc(N(C)Cc2cnc3nc(N)nc(N)c3n2)cc1` (stereo unspecified), the Average weight in the series with Mus musculus [1] came to 22; with Mus musculus [3], 21.1; with Mus musculus [13], 21.2. The Range with L1210 [2] came out at 17; in the series with L1210 [6] it was 14; in the series with L1210 [7], 20. This molecule also returned a T/C in the series with L1210 [4] of 9. For the same molecule, the increase in life span (ILS) with L1210 [5] is reported as 137%. Moreover, the Weight change in the series on Mus musculus [8] worked out at 0.3; with Mus musculus [10] it was 1.7; with Mus musculus [12], 2.4. In the series on L1210 [9], this molecule showed an ILS at 40 mg/kg of 75%. Moreover, the ILS at 20 mg/kg in the series on L1210 [11] was 50%.
Take `CCCCCCCCOC(=O)CCC(NC(=O)c1ccc(N(C)Cc2cnc3nc(N)nc(N)c3n2)cc1)C(=O)OCCCCCCCC` (stereo unspecified): the Average weight with Mus musculus [14] is 26.4; with Mus musculus [21], 25.2. Further, the Range with L1210 [15] is recorded as 14; in the series with L1210 [18] it was 18. Also, in the series with L1210 [16], the ILS at 15 mg/kg worked out at 66%. For the same molecule, the Weight change in the series on Mus musculus [17] was found to be 0.8; with Mus musculus [19], 0.4. Besides, in the series with L1210 [20], the ILS at 7.5 mg/kg was found to be 44%.
With `CC(C)CCOC(=O)CCC(NC(=O)c1cc(Cl)c(N(C)Cc2cnc3nc(N)nc(N)c3n2)c(Cl)c1)C(=O)OCCC(C)C` (stereo unspecified), the Average weight in the series on Mus musculus [1] was found to be 20.8; in the series with Mus musculus [3], 22.1; in the series on Mus musculus [13] it was 21.2. The T/C in the series with L1210 [22], with L1210 [23] and in the series with L1210 [26] was 9 each time. The Range in the series on L1210 [24] is listed as 19; in the series on L1210 [27], 13; in the series with L1210 [28] it was 26. The ILS at 80 mg/kg in the series with L1210 [25] was 100%. Besides, the Weight change is recorded as 1 in the series on Mus musculus [8], 0.1 with Mus musculus [10] and 2.7 in the series with Mus musculus [12]. Besides, in the series with L1210 [9], the ILS at 40 mg/kg came out at 67%. In addition, the ILS at 20 mg/kg in the series with L1210 [11] worked out at 44%.
For `CC(C)COC(=O)CCC(NC(=O)c1cc(Cl)c(N(C)Cc2cnc3nc(N)nc(N)c3n2)c(Cl)c1)C(=O)OCC(C)C` (stereo unspecified), the Average weight came out at 19.8 in the series on Mus musculus [1] and 21.4 with Mus musculus [13]. Moreover, the Range is listed as 23 with L1210 [29] and 18 in the series with L1210 [31]. For the same molecule, the T/C in the series with L1210 [23] and in the series with L1210 [30] was 9 in each case. For the same molecule, the increase in lifespan (ILS) at 80 mg/kg in the series on L1210 [25] stood at 111%. The Weight change in the series on Mus musculus [8] turned out to be 1.3; in the series with Mus musculus [10] it was 0.1. Also, in the series on L1210 [9], the increase in lifespan (ILS) at 40 mg/kg amounted to 44%.

Values taken from ChEMBL document CHEMBL1122370 (J Med Chem, 1983).
